Assay results taken from patent publication US11306101B2 (Celgene Corporation, priority 2019, dated 2022).

Target: T1, CK1α (Homo sapiens, UniProt P48729+Q96SW2)
T1 construct: expressed in transfected cells
Experiment: CK1α ePL degradation assay in MDS-L cells
Type: cell-based
Settings: MDS-L cells expressing ePL-tagged CK1α; for DC50: concentration giving 50% CK1α degradation vs DMSO control; for Y: lowest measured CK1α level normalized to DMSO control
Outline: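 MDS-L cells treated with compound in a 10-point, 3-fold series from 10 μM to 0.0005 μM at 37° C, 5% CO2 for the indicated times; CK1α measured by InCELL Hunter enzyme-fragment luminescence. Levels normalized to DMSO as percent of control; lowest level reached taken as Y value.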

T1 sequence (P48729 whole entry): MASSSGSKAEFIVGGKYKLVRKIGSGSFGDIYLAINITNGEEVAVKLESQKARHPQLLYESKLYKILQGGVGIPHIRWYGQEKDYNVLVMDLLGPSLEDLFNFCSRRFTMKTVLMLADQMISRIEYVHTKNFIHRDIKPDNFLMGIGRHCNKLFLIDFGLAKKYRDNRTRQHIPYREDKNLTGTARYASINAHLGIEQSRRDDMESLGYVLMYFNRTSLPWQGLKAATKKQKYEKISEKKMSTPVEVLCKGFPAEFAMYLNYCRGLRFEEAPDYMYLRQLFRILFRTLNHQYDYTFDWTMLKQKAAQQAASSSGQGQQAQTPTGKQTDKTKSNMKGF
T1 sequence (Q96SW2 whole entry): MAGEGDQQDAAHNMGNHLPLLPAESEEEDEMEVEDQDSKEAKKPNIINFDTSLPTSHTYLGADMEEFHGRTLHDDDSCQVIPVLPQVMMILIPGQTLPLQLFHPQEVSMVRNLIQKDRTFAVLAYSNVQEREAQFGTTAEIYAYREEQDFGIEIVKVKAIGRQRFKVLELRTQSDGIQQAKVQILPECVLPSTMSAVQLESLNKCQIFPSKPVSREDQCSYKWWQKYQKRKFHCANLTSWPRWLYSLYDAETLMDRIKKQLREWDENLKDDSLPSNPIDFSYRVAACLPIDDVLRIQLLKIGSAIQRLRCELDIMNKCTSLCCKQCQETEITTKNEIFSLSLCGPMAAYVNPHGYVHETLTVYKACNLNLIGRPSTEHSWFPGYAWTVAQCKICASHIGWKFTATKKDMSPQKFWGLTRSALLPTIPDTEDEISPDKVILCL
T1 sequence (Q16531 whole entry partner): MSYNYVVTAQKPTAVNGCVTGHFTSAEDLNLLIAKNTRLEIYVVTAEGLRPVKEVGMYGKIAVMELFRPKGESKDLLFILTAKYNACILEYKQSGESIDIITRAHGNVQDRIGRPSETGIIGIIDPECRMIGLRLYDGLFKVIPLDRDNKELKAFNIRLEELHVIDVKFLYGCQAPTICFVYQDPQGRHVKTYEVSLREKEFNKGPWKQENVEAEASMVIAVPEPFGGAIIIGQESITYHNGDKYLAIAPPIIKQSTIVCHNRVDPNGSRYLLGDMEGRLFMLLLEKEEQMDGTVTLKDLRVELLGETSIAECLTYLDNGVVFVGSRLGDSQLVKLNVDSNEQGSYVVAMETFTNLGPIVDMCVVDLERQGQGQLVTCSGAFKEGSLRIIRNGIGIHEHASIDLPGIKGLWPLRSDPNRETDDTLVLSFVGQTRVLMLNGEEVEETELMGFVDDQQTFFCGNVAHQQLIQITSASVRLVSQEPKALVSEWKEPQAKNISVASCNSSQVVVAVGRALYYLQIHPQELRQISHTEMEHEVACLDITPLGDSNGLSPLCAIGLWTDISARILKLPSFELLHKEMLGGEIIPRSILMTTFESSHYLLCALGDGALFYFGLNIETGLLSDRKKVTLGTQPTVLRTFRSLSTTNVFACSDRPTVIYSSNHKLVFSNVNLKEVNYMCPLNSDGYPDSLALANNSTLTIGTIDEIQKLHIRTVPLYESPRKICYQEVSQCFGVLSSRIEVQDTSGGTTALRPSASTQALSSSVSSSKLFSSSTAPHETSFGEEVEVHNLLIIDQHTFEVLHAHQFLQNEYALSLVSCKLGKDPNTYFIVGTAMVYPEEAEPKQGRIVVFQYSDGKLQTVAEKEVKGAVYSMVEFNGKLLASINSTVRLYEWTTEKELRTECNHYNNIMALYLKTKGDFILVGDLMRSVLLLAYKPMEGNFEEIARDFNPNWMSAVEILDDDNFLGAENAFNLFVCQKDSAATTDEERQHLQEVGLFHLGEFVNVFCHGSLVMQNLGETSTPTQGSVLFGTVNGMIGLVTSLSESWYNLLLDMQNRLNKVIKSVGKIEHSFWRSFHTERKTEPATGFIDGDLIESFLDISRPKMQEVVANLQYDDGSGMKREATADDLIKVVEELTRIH

Compound | DC50 | Y
O=C1CCC(N2Cc3cc(C(=O)N[C@H](C4CCOCC4)C(F)(F)F)ccc3C2=O)C(=O)N1 (stereo partly drawn) [Example 36, 2-(2,6-dioxopiperidin-3-yl)-1-oxo-N-((R)-2,2,2-trifluoro-1-(tetrahydro-2H-pyran-4-yl)ethyl)isoindoline-5-carboxamide] | 0.1 to 0.5 µM | ** (a Y value (shown as**) of 20%<Y≤35%)
O=C1CCC(N2Cc3c(ccc(C(=O)N[C@H](c4ccccc4Cl)C(F)(F)F)c3F)C2=O)C(=O)N1 (stereo partly drawn) [Example 114, N-((R)-1-(2-chlorophenyl)-2,2,2-trifluoroethyl)-2-(2,6-dioxopiperidin-3-yl)-4-fluoro-1-oxoisoindoline-5-carboxamide] | < 0.1 µM | * (a Y value (shown as *) of 0<Y≤20%)
O=C1CCC(N2Cc3cc(C(=O)N[C@H](c4ccc(C(F)(F)F)cn4)C(F)(F)F)ccc3C2=O)C(=O)N1 (stereo partly drawn) [Example 126, 2-(2,6-dioxopiperidin-3-yl)-1-oxo-N-((R)-2,2,2-trifluoro-1-(5-(trifluoromethyl)pyridin-2-yl)ethyl)isoindoline-5-carboxamide] | < 0.1 µM | ** (a Y value (shown as**) of 20%<Y≤35%)
C[C@H](NC(=O)c1ccc2c(c1)CN(C1CCC(=O)NC1=O)C2=O)c1cccc(Cl)c1 (stereo partly drawn) [Example 15] | < 0.1 µM | * (a Y value (shown as *) of 0<Y≤20%)
O=C1CCC(N2Cc3cc(C(=O)N[C@H](C4CCC(C(F)(F)F)CC4)C(F)(F)F)ccc3C2=O)C(=O)N1 (stereo partly drawn) [Example 71, 2-(2,6-dioxopiperidin-3-yl)-1-oxo-N-((1R)-2,2,2-trifluoro-1-(4-(trifluoromethyl)cyclohexyl)ethyl)isoindoline-5-carboxamide] | < 0.1 µM | * (a Y value (shown as *) of 0<Y≤20%)
O=C1CCC(N2Cc3cc(C(=O)N[C@H](c4ccccc4OC(F)(F)F)C(F)(F)F)ccc3C2=O)C(=O)N1 (stereo partly drawn) [Example 44, 2-(2,6-dioxopiperidin-3-yl)-1-oxo-N-((R)-2,2,2-trifluoro-1-(2-(trifluoromethoxy)phenyl)ethyl)isoindoline-5-carboxamide] | < 0.1 µM | * (a Y value (shown as *) of 0<Y≤20%)
O=C1CCC(N2Cc3cc(C(=O)N[C@H](c4ccccc4)C(F)(F)F)c(F)cc3C2=O)C(=O)N1 (stereo partly drawn) [Example 84, 2-(2,6-dioxopiperidin-3-yl)-6-fluoro-1-oxo-N-((R)-2,2,2-trifluoro-1-phenylethyl)isoindoline-5-carboxamide] | 0.1 to 0.5 µM | ** (a Y value (shown as**) of 20%<Y≤35%)
CC(C)([C@@H](NC(=O)c1ccc2c(c1)CN(C1CCC(=O)NC1=O)C2=O)C(F)(F)F)C(F)(F)F (stereo partly drawn) [Example 68, 2-(2,6-dioxopiperidin-3-yl)-N-((R)-1,1,1,4,4,4-hexafluoro-3,3-dimethylbutan-2-yl)-1-oxoisoindoline-5-carboxamide] | 0.1 to 0.5 µM | ** (a Y value (shown as**) of 20%<Y≤35%)
O=C1CC[C@@H](N2Cc3cc(C(=O)N[C@H](c4ccccc4)C(F)(F)F)ccc3C2=O)C(=O)N1 [Example 60, 2-((R)-2,6-dioxopiperidin-3-yl)-1-oxo-N-((R)-2,2,2-trifluoro-1-phenylethyl)isoindoline-5-carboxamide] | < 0.1 µM | * (a Y value (shown as *) of 0<Y≤20%)
N#Cc1cccc([C@@H](NC(=O)c2ccc3c(c2)CN(C2CCC(=O)NC2=O)C3=O)C(F)(F)F)c1 (stereo partly drawn) [Example 64, N-((R)-1-(3-cyanophenyl)-2,2,2-trifluoroethyl)-2-(2,6-dioxopiperidin-3-yl)-1-oxoisoindoline-5-carboxamide] | < 0.1 µM | * (a Y value (shown as *) of 0<Y≤20%)
CC1([C@@H](NC(=O)c2ccc3c(c2)CN(C2CCC(=O)NC2=O)C3=O)C(F)(F)F)CCCC1 (stereo partly drawn) [Example 83, 2-(2,6-dioxopiperidin-3-yl)-1-oxo-N-((R)-2,2,2-trifluoro-1-(1-methylcyclopentyl)ethyl)isoindoline-5-carboxamide] | < 0.1 µM | * (a Y value (shown as *) of 0<Y≤20%)
O=C1CCC(N2Cc3cc(C(=O)N[C@H](C4CCC5(CCC5)CC4)C(F)(F)F)ccc3C2=O)C(=O)N1 (stereo partly drawn) [Example 53, 2-(2,6-dioxopiperidin-3-yl)-1-oxo-N-((1R)-2,2,2-trifluoro-1-(spiro[3.5]nonan-7-yl)ethyl)isoindoline-5-carboxamide] | < 0.1 µM | * (a Y value (shown as *) of 0<Y≤20%)
O=C1CCC(N2Cc3cc(C(=O)N[C@@H](C(F)(F)F)C45CC(C4)C5)ccc3C2=O)C(=O)N1 (stereo partly drawn) [Example 57, N-((R)-1-(bicyclo[1.1.1]pentan-1-yl)-2,2,2-trifluoroethyl)-2-(2,6-dioxopiperidin-3-yl)-1-oxoisoindoline-5-carboxamide] | < 0.1 µM | * (a Y value (shown as *) of 0<Y≤20%)
COc1cc(F)ccc1[C@@H](NC(=O)c1ccc2c(c1)CN(C1CCC(=O)NC1=O)C2=O)C(F)(F)F (stereo partly drawn) [Example 67, 2-(2,6-dioxopiperidin-3-yl)-1-oxo-N-((R)-2,2,2-trifluoro-1-(4-fluoro-2-methoxyphenyl)ethyl)isoindoline-5-carboxamide] | < 0.1 µM | * (a Y value (shown as *) of 0<Y≤20%)
C[C@@H](NC(=O)c1ccc2c(c1)CN(C1CCC(=O)NC1=O)C2=O)C1CCCCC1 (stereo partly drawn) [Example 4] | < 0.1 µM | * (a Y value (shown as *) of 0<Y≤20%)

Further lines, results first:

DC50 | Y | Compound
0.1 to 0.5 µM | ** (a Y value (shown as**) of 20%<Y≤35%) | O=C1CCC(N2Cc3cc(C(=O)N[C@@H](CC(F)(F)F)c4cccc(F)c4)ccc3C2=O)C(=O)N1 (stereo partly drawn) [Example 162, 2-(2,6-dioxopiperidin-3-yl)-1-oxo-N-((S)-3,3,3-trifluoro-1-(3-fluorophenyl)propyl)isoindoline-5-carboxamide]
0.1 to 0.5 µM | ** (a Y value (shown as**) of 20%<Y≤35%) | O=C1CCC(N2Cc3c(ccc(C(=O)N[C@H](c4ccc(OC5CC5)cc4)C(F)(F)F)c3F)C2=O)C(=O)N1 (stereo partly drawn) [Example 130, N-((R)-1-(4-cyclopropoxyphenyl)-2,2,2-trifluoroethyl)-2-(2,6-dioxopiperidin-3-yl)-4-fluoro-1-oxoisoindoline-5-carboxamide]
< 0.1 µM | * (a Y value (shown as *) of 0<Y≤20%) | O=C1CCC(N2Cc3cc(C(=O)N[C@H](c4ncc(Cl)cc4Cl)C(F)(F)F)ccc3C2=O)C(=O)N1 (stereo partly drawn) [Example 184, N-((R)-1-(3,5-dichloropyridin-2-yl)-2,2,2-trifluoroethyl)-2-(2,6-dioxopiperidin-3-yl)-1-oxoisoindoline-5-carboxamide]
< 0.1 µM | * (a Y value (shown as *) of 0<Y≤20%) | CC(C)(O)C12CC([C@@H](NC(=O)c3ccc4c(c3)CN(C3CCC(=O)NC3=O)C4=O)C(F)(F)F)(C1)C2 (stereo partly drawn) [Example 165, 2-(2,6-dioxopiperidin-3-yl)-1-oxo-N-((R)-2,2,2-trifluoro-1-(3-(2-hydroxypropan-2-yl)bicyclo[1.1.1]pentan-1-yl)ethyl)isoindoline-5-carboxamide]
< 0.1 µM | * (a Y value (shown as *) of 0<Y≤20%) | CN(C)Cc1cnc([C@@H](NC(=O)c2ccc3c(c2)CN(C2CCC(=O)NC2=O)C3=O)C(F)(F)F)c(Cl)c1 (stereo partly drawn) [Example 202, N-((R)-1-(3-chloro-5-((dimethylamino)methyl)pyridin-2-yl)-2,2,2-trifluoroethyl)-2-(2,6-dioxopiperidin-3-yl)-1-oxoisoindoline-5-carboxamide]
0.1 to 0.5 µM | * (a Y value (shown as *) of 0<Y≤20%) | O=C1CCC(N2Cc3cc(C(=O)N[C@H](C4CCN(CC(F)(F)F)CC4)C(F)(F)F)ccc3C2=O)C(=O)N1 (stereo partly drawn) [Example 143, 2-(2,6-dioxopiperidin-3-yl)-1-oxo-N-((R)-2,2,2-trifluoro-1-(1-(2,2,2-trifluoroethyl)piperidin-4-yl)ethyl)isoindoline-5-carboxamide]
< 0.1 µM | * (a Y value (shown as *) of 0<Y≤20%) | CN1CCN(c2ccccc2[C@@H](NC(=O)c2ccc3c(c2)CN(C2CCC(=O)NC2=O)C3=O)C(F)(F)F)CC1 (stereo partly drawn) [Example 206, 2-(2,6-dioxopiperidin-3-yl)-1-oxo-N-((R)-2,2,2-trifluoro-1-(2-(4-methylpiperazin-1-yl)phenyl)ethyl)isoindoline-5-carboxamide]
0.1 to 0.5 µM | ** (a Y value (shown as**) of 20%<Y≤35%) | C[C@@H](NC(=O)c1ccc2c(c1)CN(C1CCC(=O)NC1=O)C2=O)C1CCCC1 (stereo partly drawn) [Example 132]
< 0.1 µM | * (a Y value (shown as *) of 0<Y≤20%) | O=C1CCC(N2Cc3cc(C(=O)N[C@H](c4ncc(F)cc4F)C(F)(F)F)ccc3C2=O)C(=O)N1 (stereo partly drawn) [Example 133, N-((R)-1-(3,5-difluoropyridin-2-yl)-2,2,2-trifluoroethyl)-2-(2,6-dioxopiperidin-3-yl)-1-oxoisoindoline-5-carboxamide]
< 0.1 µM | * (a Y value (shown as *) of 0<Y≤20%) | O=C1CCC(N2Cc3cc(C(=O)N[C@H](C4CCC5(CC4)CC5)C(F)(F)F)ccc3C2=O)C(=O)N1 (stereo partly drawn) [Example 166, 2-(2,6-dioxopiperidin-3-yl)-1-oxo-N-((1R)-2,2,2-trifluoro-1-(spiro[2.5]octan-6-yl)ethyl)isoindoline-5-carboxamide]
< 0.1 µM | * (a Y value (shown as *) of 0<Y≤20%) | CN(C)Cc1ccccc1[C@@H](NC(=O)c1ccc2c(c1)CN(C1CCC(=O)NC1=O)C2=O)C(F)(F)F (stereo partly drawn) [Example 192, N-((R)-1-(2-((dimethylamino)methyl)phenyl)-2,2,2-trifluoroethyl)-2-(2,6-dioxopiperidin-3-yl)-1-oxoisoindoline-5-carboxamide]
< 0.1 µM | * (a Y value (shown as *) of 0<Y≤20%) | COc1cccnc1[C@@H](NC(=O)c1ccc2c(c1)CN(C1CCC(=O)NC1=O)C2=O)C(F)(F)F (stereo partly drawn) [Example 200, 2-(2,6-dioxopiperidin-3-yl)-1-oxo-N-((R)-2,2,2-trifluoro-1-(3-methoxypyridin-2-yl)ethyl)isoindoline-5-carboxamide]
